Legend:
[1] = tested on: HIV-1 strains, for e.g., 92HT599; assay: Antiviral activity: p24 estimation in HIV-1 infected MT-2 cells; assay type: cell-based; conditions: Human immunodeficiency virus 1, MT2; MT-2 cells, p24; read-out: Antiviral activity IC50
Protocol: MT-2 cells were infected with required number of TCID50's of HIV-1 strains, for e.g., 92HT599. The infected cells were plated at the concentration of 30,000 cells per well in a 96 well plate. Test compound was added to the 96 well plate with the final concentration of DMSO (vehicle—not more than 1%). The plates are then incubated in a CO2 incubator for ˜96 hours (˜4 days) for viral infection. At the end of incubation period an aliquot from each well was taken for p24 estimation. The quantitation of p24 is an estimated index for antiviral activity of the compound. Percent inhibition was calculated with reference to control values (vehicle controls).
p-24 estimation was carried out using Advance biosciences kit as per the procedure detailed by supplier.

[2] = Single dose oral pharmacokinetic study; parameters: species or system mice; conditions: mouse, in vivo, po, 30 mg/kg
Protocol: The test item was administered through oral route to animals (rat/mice) at 30 mg/kg dose in a suitable vehicle at 10 ml/kg dose volume. Blood samples (˜50 uL at each time point) were collected from retro-orbital plexus using K3 EDTA as anticoagulant in eppendorf tubes at defined time intervals under light ether anesthesia. The samples were centrifuged at 3500×g to separate plasma and stored at −80° C. until analysis.
Sample analysis: Test samples were analyzed using LC-MS-MS after developing fit-for-purpose method for each of test compound.

| Structure (SMILES) | IC50 [1] [nM] | AUC(0-t) [2] [µg·h/mL] | Cmax [2] [ng/mL] |
| --- | --- | --- | --- |
| C=C(C)[C@@H]1CC[C@]2(C(=O)N3CCC[C@H]3c3nc(-c4ccc(F)cc4)cn3CCN(C)C)CC[C@]3(C)[C@H](CC[C@@H]4[C@@]5(C)CC[C@H](OC(=O)[C@H]6C[C@@H](C(=O)O)C6(C)C)C(C)(C)[C@@H]5CC[C@]43C)[C@@H]12 [Compound 7, (1R,3S)-3-((((1R,3aS,5aR,5bR,7aR,9S,11aR,11bR,13aR,13bR)-3a-((S)-2-(1-(2-(dimethylamino)ethyl)-4-(4-fluorophenyl)-1H-imidazol-2-yl)pyrrolidine-1-carbonyl)-5a,5b,8,8,11a-pentamethyl-1-(prop-1-en-2-yl)icosahydro-1H-cyclopenta[a]chrysen-9-yl)oxy)carbonyl)-2,2-dimethyl cyclobutane-1-carboxylic acid] | 75.3 |  |  |
| C=C(C)[C@@H]1CC[C@]2(C(=O)N3CCC[C@H]3c3nc(-c4ccccc4)cn3CCN3CCCC3)CC[C@]3(C)[C@H](CC[C@@H]4[C@@]5(C)CC[C@H](OC(=O)[C@H]6C[C@@H](C(=O)O)C6(C)C)C(C)(C)[C@@H]5CC[C@]43C)[C@@H]12 [Compound 10, (1R,3S)-2,2-dimethyl-3-((((1R,3aS,5aR,5bR,7aR,9S,11aR,11bR,13aR,13bR)-5a,5b,8,8,11a-pentamethyl-3a-((S)-2-(4-phenyl-1-(2-(pyrrolidin-1-yl)ethyl)-1H-imidazol-2-yl)pyrrolidine-1-carbonyl)-1-(prop-1-en-2-yl)icosahydro-1H-cyclopenta[a]chrysen-9-yl)oxy)carbonyl)cyclo butane-1-carboxylic acid] | 7.75 | 145 | 4640 |
| C=C(C)[C@@H]1CC[C@]2(C(=O)N3CCC[C@H]3c3nc(-c4cccnc4)cn3CCN(C)C)CC[C@]3(C)[C@H](CC[C@@H]4[C@@]5(C)CC[C@H](OC(=O)[C@H]6C[C@@H](C(=O)O)C6(C)C)C(C)(C)[C@@H]5CC[C@]43C)[C@@H]12 [Compound 6, (1R,3S)-3-((((1R,3aS,5aR,5bR,7aR,9S,11aR,11bR,13aR,13bR)-3a-((S)-2-(1-(2-(dimethylamino)ethyl)-4-(pyridin-3-yl)-1H-imidazol-2-yl)pyrrolidine-1-carbonyl)-5a,5b,8,8,11a-pentamethyl-1-(prop-1-en-2-yl)icosahydro-1H-cyclopenta[a]chrysen-9-yl)oxy)carbonyl)-2,2-dimethyl cyclobutane-1-carboxylic acid] | 2.55 | 212 | 9460 |
| C=C(C)[C@@H]1CC[C@]2(C(=O)N3C[C@H](OCCOC)C[C@H]3c3nc(-c4ccccc4)cn3CCN(C)C)CC[C@]3(C)[C@H](CC[C@@H]4[C@@]5(C)CC[C@H](OC(=O)[C@H]6C[C@@H](C(=O)O)C6(C)C)C(C)(C)[C@@H]5CC[C@]43C)[C@@H]12 [Compound 25, (1R,3S)-3-((((1R,3aS,5aR,5bR,7aR,9S,11aR,11bR,13aR,13bR)-3a-((2S,4R)-2-(1-(2-(dimethylamino)ethyl)-4-phenyl-1H-imidazol-2-yl)-4-(2-methoxyethoxy)pyrrolidine-1-carbonyl)-5a,5b,8,8,11a-pentamethyl-1-(prop-1-en-2-yl)icosahydro-1H-cyclopenta[a]chrysen-9-yl)oxy)carbonyl)-2,2-dimethylcyclobutane-1-carboxylic acid] |  | 617 | 17600 |
| C=C(C)[C@@H]1CC[C@]2(C(=O)N3CCC[C@H]3c3nc(-c4ccccc4)cn3CCN(C)C)CC[C@]3(C)[C@H](CC[C@@H]4[C@@]5(C)CC[C@H](OC(=O)[C@H]6C[C@@H](C(=O)O)C6(C)C)C(C)(C)[C@@H]5CC[C@]43C)[C@@H]12 [Compound 5, (1R,3S)-3-((((1R,3aS,5aR,5bR,7aR,9S,11aR,11bR,13aR,13bR)-3a-((S)-2-(1-(2-(dimethylamino)ethyl)-4-phenyl-1H-imidazol-2-yl)pyrrolidine-1-carbonyl)-5a,5b,8,8,11a-pentamethyl-1-(prop-1-en-2-yl)icosahydro-1H-cyclopenta[a]chrysen-9-yl)oxy)carbonyl)-2,2-dimethylcyclobutane-1-carboxylic acid] | 73.2 | 292 | 10400 |
| C=C(C)[C@@H]1CC[C@]2(C(=O)N3CCC[C@H]3c3nc(-c4ccncc4)cn3CCN(C)C)CC[C@]3(C)[C@H](CC[C@@H]4[C@@]5(C)CC[C@H](OC(=O)[C@H]6C[C@@H](C(=O)O)C6(C)C)C(C)(C)[C@@H]5CC[C@]43C)[C@@H]12 [Compound 8, (1R,3S)-3-((((1R,3aS,5aR,5bR,7aR,9S,11aR,11bR,13aR,13bR)-3a-((S)-2-(1-(2-(dimethylamino)ethyl)-4-(pyridin-4-yl)-1H-imidazol-2-yl)pyrrolidine-1-carbonyl)-5a,5b,8,8,11a-pentamethyl-1-(prop-1-en-2-yl)icosahydro-1H-cyclopenta[a]chrysen-9-yl)oxy)carbonyl)-2,2-dimethyl cyclobutane-1-carboxylic acid] | 12.5 | 243 | 9080 |
| C=C(C)[C@@H]1CC[C@]2(C(=O)N3CCC[C@H]3c3nc(-c4ccccc4)cn3CCOC)CC[C@]3(C)[C@H](CC[C@@H]4[C@@]5(C)CC[C@H](OC(=O)[C@H]6C[C@@H](C(=O)O)C6(C)C)C(C)(C)[C@@H]5CC[C@]43C)[C@@H]12 [Compound 4, (1R,3S)-3-((((1R,3aS,5aR,5bR,7aR,9S,11aR,11bR,13aR,13bR)-3a-((S)-2-(1-(2-methoxyethyl)-4-phenyl-1H-imidazol-2-yl)pyrrolidine-1-carbonyl)-5a,5b,8,8,11a-pentamethyl-1-(prop-1-en-2-yl)icosahydro-1H-cyclopenta[a]chrysen-9-yl)oxy)carbonyl)-2,2-dimethylcyclobutane-1-carboxylic acid] |  | 291 | 9220 |
| C=C(C)[C@@H]1CC[C@]2(C(=O)N3CCC[C@H]3c3nc(-c4cccnc4)cn3CCN(C)C)CC[C@]3(C)[C@H](CC[C@@H]4[C@@]5(C)CC[C@H](OC(=O)CC(C)(C)C(=O)O)C(C)(C)[C@@H]5CC[C@]43C)[C@@H]12 [Compound 18, 4-(((1R,3aS,5aR,5bR,7aR,9S,11aR,11bR,13aR,13bR)-3a-((S)-2-(1-(2-(dimethylamino)ethyl)-4-(pyridin-3-yl)-1H-imidazol-2-yl)pyrrolidine-1-carbonyl)-5a,5b,8,8,11a-pentamethyl-1-(prop-1-en-2-yl)icosahydro-1H-cyclopenta[a]chrysen-9-yl)oxy)-2,2-dimethyl-4-oxobutanoic acid] | 80.4 | 3.01 | 648 |
| C=C(C)[C@@H]1CC[C@]2(C(=O)N3CCC[C@H]3c3nc(-c4ccccc4)cn3CCN3CCOCC3)CC[C@]3(C)[C@H](CC[C@@H]4[C@@]5(C)CC[C@H](OC(=O)[C@H]6C[C@@H](C(=O)O)C6(C)C)C(C)(C)[C@@H]5CC[C@]43C)[C@@H]12 [Compound 3, (1R,3S)-2,2-dimethyl-3-((((1R,3aS,5aR,5bR,7aR,9S,11aR,11bR,13aR,13bR)-5a,5b,8,8,11a-pentamethyl-3a-((S)-2-(1-(2-morpholinoethyl)-4-phenyl-1H-imidazol-2-yl)pyrrolidine-1-carbonyl)-1-(prop-1-en-2-yl)icosahydro-1H-cyclopenta[a]chrysen-9-yl)oxy)carbonyl)cyclo butane-1-carboxylic acid] | 113 | 407 | 14700 |
| C=C(C)[C@@H]1CC[C@]2(C(=O)N3CCC[C@H]3c3nc(-c4ccccc4)cn3C)CC[C@]3(C)[C@H](CC[C@@H]4[C@@]5(C)CC[C@H](OC(=O)[C@H]6C[C@@H](C(=O)O)C6(C)C)C(C)(C)[C@@H]5CC[C@]43C)[C@@H]12 [Compound 1, (1R,3S)-2,2-dimethyl-3-((((1R,3aS,5aR,5bR,7aR,9S,11aR,11bR,13aR,13bR)-5a,5b,8,8,11a-pentamethyl-3a-((S)-2-(1-methyl-4-phenyl-1H-imidazol-2-yl)pyrrolidine-1-carbonyl)-1-(prop-1-en-2-yl)icosahydro-1H-cyclopenta[a]chrysen-9-yl)oxy)carbonyl)cyclobutane-1-carboxylic acid] | 6.74 | 250 | 8540 |
| C=C(C)[C@@H]1CC[C@]2(C(=O)N3CCC[C@H]3c3nc(-c4ccccc4)cn3CCOCCOC)CC[C@]3(C)[C@H](CC[C@@H]4[C@@]5(C)CC[C@H](OC(=O)[C@H]6C[C@@H](C(=O)O)C6(C)C)C(C)(C)[C@@H]5CC[C@]43C)[C@@H]12 [Compound 2, (1R,3S)-3-((((1R,3aS,5aR,5bR,7aR,9S,11aR,11bR,13aR,13bR)-3a-((S)-2-(1-(2-(2-methoxyethoxy)ethyl)-4-phenyl-1H-imidazol-2-yl)pyrrolidine-1-carbonyl)-5a,5b,8,8,11a-pentamethyl-1-(prop-1-en-2-yl)icosahydro-1H-cyclopenta[a]chrysen-9-yl)oxy)carbonyl)-2,2-dimethyl cyclobutane-1-carboxylic acid] |  | 335 | 11400 |
